According to patent publication US12227490B2, “Cereblon binding compounds, compositions thereof, and methods of treatment therewith” (Celgene Corporation, priority 2020, dated 2025):
Structures can show the parent of a compound that is named as a salt.

Target: T1, AR (androgen receptor) protein in VCaP cells (Homo sapiens, UniProt P10275)
T1 construct: endogenous in cells; host or cells: VCaP cells
T1 sequence (P10275 1-920): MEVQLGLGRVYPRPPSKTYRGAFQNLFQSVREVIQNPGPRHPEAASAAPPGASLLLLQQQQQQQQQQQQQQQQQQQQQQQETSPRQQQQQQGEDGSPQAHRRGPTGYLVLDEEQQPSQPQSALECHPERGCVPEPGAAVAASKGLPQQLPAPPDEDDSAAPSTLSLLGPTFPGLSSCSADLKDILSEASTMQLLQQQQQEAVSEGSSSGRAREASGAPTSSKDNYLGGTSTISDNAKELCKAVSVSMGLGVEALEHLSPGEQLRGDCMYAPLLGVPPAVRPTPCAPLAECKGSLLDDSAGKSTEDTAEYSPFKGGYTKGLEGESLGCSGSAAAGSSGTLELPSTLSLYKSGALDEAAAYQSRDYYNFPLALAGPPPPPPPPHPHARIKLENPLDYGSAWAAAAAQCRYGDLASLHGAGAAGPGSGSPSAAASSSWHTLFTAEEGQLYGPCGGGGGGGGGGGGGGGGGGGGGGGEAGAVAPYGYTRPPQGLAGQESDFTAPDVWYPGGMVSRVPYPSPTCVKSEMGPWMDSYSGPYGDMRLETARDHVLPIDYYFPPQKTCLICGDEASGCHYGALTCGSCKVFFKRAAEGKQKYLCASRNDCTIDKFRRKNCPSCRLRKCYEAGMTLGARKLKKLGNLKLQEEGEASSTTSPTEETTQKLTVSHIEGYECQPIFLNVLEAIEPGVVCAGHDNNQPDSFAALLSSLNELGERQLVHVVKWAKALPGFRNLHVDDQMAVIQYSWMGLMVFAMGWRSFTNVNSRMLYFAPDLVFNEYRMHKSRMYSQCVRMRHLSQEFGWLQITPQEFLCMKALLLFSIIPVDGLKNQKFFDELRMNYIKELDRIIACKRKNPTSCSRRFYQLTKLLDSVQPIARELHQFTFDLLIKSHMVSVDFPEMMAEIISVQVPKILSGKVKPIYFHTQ
Assay: VCAP AR Degradation Assay
Type: cell-based
Conditions: 24 h, AR ELISA; for DC50: concentration of compound when AR level = 50% of DMSO control; for remaining activity at up to 5 µM: top concentration 5 μM, read-out: Y (lowest measured AR level normalized to DMSO control, AR degradation efficiency)
Description: VCAP AR Degradation Assay. Test compounds were pre-dispensed into a Corning CellBind 96-well clear bottom plate (Cat #3300) using an acoustic dispenser to make a 10-point concentration series at 1:3 dilution for each compound. The final top concentration of each compound was 5 μM. DMSO at a final concentration of 0.1% was used as a control. VCaP cells cultured in DMEM with 8% fetal bovine serum (FBS) were seeded at 50K cells per well in a 200 μL volume into the compound plate and incubated at 37° C. in a CO2 incubator for 24 h. The medium was carefully removed from the cells and the plate was placed on ice. One hundred μL of ice-cold 1× cell lysis buffer from Cell Signaling Technologies (Cat #9803) was added to each well of the cells and the plate was incubated at 4° C. on a shaker for 1 h. Fifteen μL of cell lysate was used for AR ELISA detection using a PathScan Total Sandwich AR ELISA kit (Cell Signaling Technology, Cat #12580). AR levels in compound-treated wells were normalized to that of DMSO control and expressed as percent of control (PoC) (y). A Four Parameter Logistic Model (Sigmoidal Dose-Response Model) was used to determine the compound's DC50, and EC50, using the following equation: y=(A+((B−A)/(1+((C/x)^D)))) • A=YMin (lowest AR level normalized to DMSO control in response to compound treatment, as determined by curve fit) • B=YMax (maximum AR level as determined by curve fit) • C=EC50 • D=Hill Slope • x=compound concentration • EC50=the concentration of compound when y=(YMax−YMin)/2 • DC50=the concentration of the compound when y=50% of DMSO control (50% AR degradation) • y=AR protein level normalized to DMSO control
The lowest measured AR level normalized to DMSO control in response to compound treatment, termed Y value, was used to characterize the compound-mediated AR degradation efficiency.

Structure (SMILES) | DC50 [nM] | remaining activity at up to 5 µM [%]
C[C@@H]1C[C@H](OCC[C@H]2CC[C@H](N3C(=S)N(c4cnc(C#N)c(C(F)(F)F)c4)C(=O)C3(C)C)CC2)C[C@H](C)N1CC(=O)Nc1cccc2c(C3CCC(=O)NC3=O)nn(C)c12 (stereo partly drawn) [Cmpd 25, 2-((2R,4r,6S)-4-(2-((trans)-4-(3-(6-Cyano-5-(trifluoromethyl)pyridin-3-yl)-5,5-dimethyl-4-oxo-2-thioxoimidazolidin-1-yl)cyclohexyl)ethoxy)-2,6-dimethylpiperidin-1-yl)-N-(3-(2,6-dioxopiperidin-3-yl)-1-methyl-1H-indazol-7-yl)acetamide] | 2 to 5 | 0 to 25
C[C@@H]1C[C@H](OCCC[C@H]2CC[C@H](N3C(=S)N(c4ccc(C#N)c(C(F)(F)F)c4)C(=O)C3(C)C)CC2)C[C@H](C)N1CC(=O)Nc1cccc2c(C3CCC(=O)NC3=O)nn(C)c12 (stereo partly drawn) [Cmpd 23, 2-((2R,4r,6S)-4-(3-((trans)-4-(3-(4-Cyano-3-(trifluoromethyl)phenyl)-5,5-dimethyl-4-oxo-2-thioxoimidazolidin-1-yl)cyclohexyl)propoxy)-2,6-dimethylpiperidin-1-yl)-N-(3-(2,6-dioxopiperidin-3-yl)-1-methyl-1H-indazol-7-yl)acetamide] | 20 to 100 | 0 to 25
C[C@@H]1CN(CCO[C@H]2CC[C@H](N3C(=S)N(c4cnc(C#N)c(Cl)c4)C(=O)C3(C)C)CC2)C[C@H](C)N1CC(=O)Nc1cccc2c(C3CCC(=O)NC3=O)nn(C)c12 (stereo partly drawn) [Cmpd 6, 2-((2R,6S)-4-(2-((trans-4-(3-(5-Chloro-6-cyanopyridin-3-yl)-5,5-dimethyl-4-oxo-2-thioxoimidazolidin-1-yl)cyclohexyl)oxy)ethyl)-2,6-dimethylpiperazin-1-yl)-N-(3-(2,6-dioxopiperidin-3-yl)-1-methyl-1H-indazol-7-yl)acetamide hydrochloride] | < 2 | 0 to 25
C[C@@H]1CN(CCCO[C@H]2CC[C@H](N3C(=S)N(c4cnc(C#N)c(C(F)(F)F)c4)C(=O)C3(C)C)CC2)C[C@H](C)N1CC(=O)Nc1cccc2c(C3CCC(=O)NC3=O)nn(C)c12 (stereo partly drawn) [Cmpd 7, 2-((2R,6S)-4-(3-((trans-4-(3-(6-Cyano-5-(trifluoromethyl)pyridin-3-yl)-5,5-dimethyl-4-oxo-2-thioxoimidazolidin-1-yl)cyclohexyl)oxy)propyl)-2,6-dimethylpiperazin-1-yl)-N-(3-(2,6-dioxopiperidin-3-yl)-1-methyl-1H-indazol-7-yl)acetamide hydrochloride] | < 2 | 0 to 25
Cn1nc(C2CCC(=O)NC2=O)c2cccc(NC(=O)CN3CCC(CCO[C@H]4CC[C@H](N5C(=S)N(c6cnc(C#N)c(C(F)(F)F)c6)C(=O)C5(C)C)CC4)C(F)(F)C3)c21 (stereo partly drawn) [Cmpd 29, 2-(4-(2-(((trans)-4-(3-(6-Cyano-5-(trifluoromethyl)pyridin-3-yl)-5,5-dimethyl-4-oxo-2-thioxoimidazolidin-1-yl)cyclohexyl)oxy)ethyl)-3,3-difluoropiperidin-1-yl)-N-(3-(2,6-dioxopiperidin-3-yl)-1-methyl-1H-indazol-7-yl)acetamide] | < 2 | 0 to 25
C[C@@H]1CN(CCC[C@H]2CC[C@H](N3C(=S)N(c4cnc(C#N)c(C(F)(F)F)c4)C(=O)C3(C)C)CC2)C[C@H](C)N1CC(=O)Nc1cccc2c(C3CCC(=O)NC3=O)nn(C)c12 (stereo partly drawn) [Cmpd 9, 2-((2R,6S)-4-(3-(trans-4-(3-(6-Cyano-5-(trifluoromethyl)pyridin-3-yl)-5,5-dimethyl-4-oxo-2-thioxoimidazolidin-1-yl)cyclohexyl)propyl)-2,6-dimethylpiperazin-1-yl)-N-(3-(2,6-dioxopiperidin-3-yl)-1-methyl-1H-indazol-7-yl)acetamide] | 2 to 5 | 25 to 30
